The target of test [1] is NSCLC VIP receptors (EPLC-65H membranes). In words: 125I-VIP binding to EPLC-65H membranes. Conditions: for IC50 / Kd: EPLC-65H membranes; for IC50: 37° C., 60 min, read-out: IC50, inhibition of specific 125I-VIP binding. The method, then: The binding properties and the adenylate cyclase activity of the VIP receptor in NSCLC cell lines were investigated. NSCLC cells were cultured in RPMI-1640 containing 10% heat inactivated fetal bovine serum (Carney et al. (1985) Cancer Res. 45:2913-2923). When a monolayer formed, the adherent cells were washed with PBS and treated with trypsin/EDTA. The cells were pelleted and resuspended in serum supplemented medium and incubated at 37° C. in 5% CO2 /95% air. Routinely the cells were passed 1/1 weekly and experiments were conducted when the cells were in exponential growth phase.
Cells were rinsed twice in PBS. Membranes were prepared from EPLC-65H by lysing cells in 20 mM Tris.HCl (pH7.5), 1 mg/ml bacitracin, 1 mM PMSF and 0.25M sucrose. The cells were sonicated (15 sec, 120 W) and the membranes centrifuged at 500×g for 5 min in a Beckman J-21 B centrifuge at 4° C. The supernatant was saved and the pellet resuspended, homogenized and centrifuged. The supernatants were combined and centrifuged at 50,000×g for 30 min. The pellet, which contains plasma membranes, was resuspended and 50 μg of membrane protein and 2×10^5 cpm of ^125 I-VIP (2200 Ci/mmol) was added to each assay tube in a total volume of 100 μl; the buffer was 50 mM Tris.maleate, 2 mM MgCl2, 2% BSA, 500 KIU/ml trasylol and 0.2 mg/ml bacitracin. The samples were incubated at 37° C. for 60 min. To terminate the reaction, the incubation solution was centrifuged for 3 min in a microfuge B. The supernatant, which contained free peptide was removed and the top of the pellet rinsed three times with cold assay buffer. The pellet, which contained bound ^125 I-VIP was counted in a gamma counter.
^125 I was purchased from NEN. VIP was iodinated using the chloramine T procedure (Christophe et al. (1976) J. Biol. Chem. 251:4629-4634). ^125 I-VIP was purified using gel filtration techniques. VIP peptides were purchased from Peninsula Laboratories Inc. (San Carlos, Calif.).

Test [2] concerns castrated rats injected with testosterone. The test can be described thus: Sexual behavior of castrated rats supplemented with testosterone. In kind it is in vivo, rat.
Experimental: Rats were castrated and injected with testosterone (4 μg/100 g BW) daily for 14 consecutive days. VIP (5 μg/animal) and the antagonists (30 μg/animal) were injected ip in a volume of 0.25 ml. Initial experiments were conducted using iv injections; however, as no significant differences were observed between iv and ip administration, ip injections were chosen in this model. When comparisons were made, the same group of rats was injected with one peptide and, after a period of at least 24 hr, with another peptide.
Test [3] relates to pituitary-transplanted male rats. In words: Sexual behavior of pituitary-grafted gonadally intact male rats. Type of test: in vivo, rat. The following applies: 5 ug iv. The text has this:
(§1) Male rats were sexually experienced Wistar-derived animals (250-300 g), approximately 3 months old from the Department of Hormone Research, Weizmann Institute of Science. All rats were kept in a 12-hr light, 12-hr dark cycle. Experiments were always conducted within the dark period 2-6 hrs after the onset of darkness. Before testing, each male was put in a separate cage for a period of at least 1 hr. A sexually receptive female (as tested by vaginal smearing) was introduced to each male. Latencies were defined as the intervals between copulatory behaviors (mounts and intromissions). These were recorded over a 15-min period. The latencies to the first copulatory event are reported separately.
This procedure results in hyperprolactinemia and a decrease in sexual potency in male rats. Pituitary-transplanted male rats (8 weeks after transplantation) were injected with 5 μg VIP, iv. As a control, saline iv was injected at identical volumes. The peptide was injected into the tail vein, restraining the animal by hand (two people were involved in the actual injection). The animals were subjected to the behavioral tests immediately after the injection. At least 24 hr elapsed between two consecutive tests per animal (i.e. between saline injection and VIP injection). The doses of VIP were deduced from those used to induce penile erection in men (Ottesen et al. (1984) Br. Med. J. 288:9). The statistical analysis involved a single test measurement per animal.

A further test relates to cAMP levels in 5M2 cells. In words: cAMP radioimmunoassay in 5M2 cells. Type of test: cell-based. The following applies: 5 min exposure. The method, then:
The cAMP assays were performed by radioimmunoassay. 5M2 cells were exposed to stimuli in SIT medium (RPMI-1640 containing 10^-8 M Se2 O3, 1 μg/ml insulin and 3×10^-8 M transferrin) containing […] isobutyl-methyl-xanthine. After 5 min, the reaction was quenched by adding an equal volume of ice cold ethanol. The samples were vortexed and an aliquot of supernatant removed and added to 100 μl of 50 mM sodium acetate (pH 6.2). The sample (25 μl) was acetylated at 4° C. by adding 10 μl of triethylamine followed by 5 μl of acetic anhydride. Then 200 μl of goat anti-cyclic AMP antibody was added followed by 8,000 cpm of ^125 I-2-succinyl (tyrosine methyl ester)-cyclic AMP (NEN). After incubation for 16 hr at 4° C., 1 ml of charcoal suspension (2 mg/ml Norit-A charcoal in 100 mM phosphate buffer, pH 6.3, which contains 0.25% BSA) was added, the tubes vortexed and centrifuged at 1,500×g for 10 min. An aliquot (1 ml) of supernatant, which contains radiolabeled antigen-antibody complex, was counted in a gamma counter.

Another test deals with VIP receptor. The test can be described thus: [125I]VIP binding to rat cortical astrocyte (glial) cell cultures. Conditions: 60 pM [125I]VIP, intact cells, 4° C.; for displacement of VIP binding: 10 μM. On the procedure: Rat cortical astrocyte cultures were prepared by previously described methods (Evans et al. (1984) J. Neurochem. 43:131; Brenneman et al.(1987) J. Cell Biol. 104:1603). VIP binding studies were conducted on intact cells at 4° C., using PBS containing 0.1% BSA. The cultures (1 mg protein/35 mm culture dish) were incubated with either VIP or the antagonist (10 μM to 1 pM) for 30 min before the addition of 60 pM [^125 I]VIP at Tyr-22 (2000 Ci/mmol; Amersham Corp., Arlington Heights, Ill). Labeled VIP was incubated with the cultures for 1 hr; the medium was then removed, and cells were washed three times by the addition and rapid removal of 1 ml PBS (at 4° C.). The labeled cells were dissolved in 0.02N NaOH and transferred for radioactivity counting.

For a further test, the system named is castrated rats. In words: Sexual behavior of castrated rats without testosterone supplementation. In kind it is in vivo, rat.
Excerpt: as §1
After castration, the animals lose sexual activity in a time-dependent manner (Bradshaw et al. (1981) Endocrinology 109:1047; Reach et al. (1946) J. Exp. Zool. 101:91), and eventually all sexual activities are blocked. […] VIP (5 μg/animal) and the antagonists (30 μg/animal) were injected ip in a volume of 0.25 ml. Initial experiments were conducted using iv injections; however, as no significant differences were observed between iv and ip administration, ip injections were chosen in this model. When comparisons were made, the same group of rats was injected with one peptide and, after a period of at least 24 hr, with another peptide. The other parameters used for the experiment are described above.
The second paradigm was the castrated rat model.

The subject of another test is NCI-H838. The test can be described thus: Soft agar colony formation, NCI-H838. Conditions: 1 μM, 2 weeks. Type of test: cell-based. The method, then:
(§2) In order to test whether the VIP-neurotensin hybrid antagonist inhibited the growth of NSCLC, single viable cells (10^4) were plated in soft agar in the absence and presence of 1 μM VIP-neurotensin hybrid antagonist. After 2 weeks, colonies were stained with a vital dye and live colonies (>[…]) counted. The colony fraction (colonies in the presence of the VIP-neurotensin hybrid antagonist relative to the number of basal colonies) was calculated. Cell lines NCI-H522, NCI-H838, and NCI-H1246 had colony fractions of 0.45±0.16, 0.76±0.04, and 1.47±0.30, respectively. The VIP-neurotensin hybrid antagonist inhibited colony formation of cell lines NCI-H522 and NCI-H838 but not NCI-H1246.

A further test deals with NCI-H1246. The test can be described thus: Soft agar colony formation, NCI-H1246. In kind it is cell-based. The following applies: 1 μM, 2 weeks. The method, then:
as §2

The test system of another test is NCI-H522. In words: Soft agar colony formation, NCI-H522. Type of test: cell-based. The following applies: 1 μM, 2 weeks. On the procedure:
as §2

In test [4] the test system is NSCLC VIP receptors (EPLC-65H membranes). In words: 125I-VIP binding to EPLC-65H membranes.
Setting [5] is: coinjected ip with VIP at 3-fold molar excess.

Read-outs that look alike come from different tables or passages of the source. No end group written: not given here.

A word on the IC50: it is the concentration needed to halve the response being measured. As a reminder, the Kd is the concentration at which binding is half-saturated.

Consider helodermin, for which the IC50 in [1] is 100 nM.

For the substance LMYPTYLK [octamere], the “effect on VIP-stimulated sexual behavior” value in test [2] (coinjected with VIP (5 ug), 20-fold molar excess, 30 ug/animal ip) is recorded as “specifically inhibited VIP effects on sexual behavior”.

As for “VIP: a 28 amino acid peptide with an amidated C-terminal; widely distributed peptide hormone”, the “mean latency to the first mount and intromission” value in test [3] came out at 23 ± 4 s. Also, the “mean interval between copulatory events” value in [3] (15-min test, vs saline) is “significant reduction”. Besides, the rate of copulation entry in test [3] (15-min test, vs saline) was “significant increase”. Moreover, the “decrease in the latency to the first intromission” value in test [3] (vs control) is 2- to 3 fold. Also, the rats that ejaculated entry in test [3] (10-20% before treatment) is reported as “all of the rats ejaculated”. For the same substance, in test [1], the IC50 came out at 10 nM. In the test with cAMP levels in 5M2 cells, the “ED50, increase of cAMP levels” value worked out at 10 nM. Further, in [2] (5 ug ip), the “decrease in intervals (intromission latencies) between copulatory events” value came out at 2 fold. In addition, the “latency to the first intromission” value in test [2] (5 ug ip, nine animals, 74±10 without VIP) turned out to be 40 ± 9 s. In addition, in test [2] (5 ug ip, vs saline injection), the “increase in the rate of intromissions before ejaculation or end of test period” value is around 2 fold. Besides, the animals that ejaculated in test [2] (after VIP treatment, 15 animals) is listed as 80-100%; with castrated rats (model without testosterone supplementation, after VIP treatment), 1 of 6. Further, in the test on VIP receptor, the “displacement of VIP binding” value was found to be 75%. Moreover, the “drop in the intervals between copulatory events (including latency to first intromission)” value in the test on castrated rats (14 days after castration, 5 ug ip) is 2- to 4 fold. The same substance registered an intromission latency in the test on castrated rats (14 days after castration, 5 ug ip, six animals, 90±16 before) of 35 ± 2.4 s.

Turning to secretin, the IC50 in [1] worked out at 300 nM.

In the case of “peptide histidine isoleucine amide (HADGVFTSDYSRLLGQISAKKYLESLI-NH2; UniProt P01283 81-107, looked up) [PHI, cosynthesized with VIP on the same protein precursor]”, the half-inhibitory concentration (IC50) in test [1] came to 80 nM. Further, in [2] (PHI by itself or VIP plus PHI equimolar), the “average latency to intromissions and rate of copulatory events, difference from VIP by itself” value is reported as 2 fold. Besides, the animals that ejaculated result in [2] (in the presence of PHI, 5 ug iv) is “one of nine”. In [2] (peptide by itself (5 ug iv) or with VIP), the “effect on rat sexual behavior” value was “inhibited rat sexual behavior and VIP-induced rat sexual behavior”.

As for “GHRH: unlabeled peptide tested for specificity of 125I-VIP binding”, the IC50 in test [1] was determined as 20 nM.

For “Lys-Pro-Arg-Arg-Pro-Tyr-Thr-Asp-Asn-Tyr-Thr-Arg-Leu-Arg-Lys-Gln-Met-Ala-Val-Lys-Lys-Tyr-Leu-Asn-Ser-Ile-Leu-Asn-NH2 (KPRRPYTDNYTRLRKQMAVKKYLNSILN-NH2) [VIP-neurotensin hybrid antagonist]”, the results for the “colony fraction (colonies with antagonist relative to basal colonies)” value in the test on NCI-H838, in the test with NCI-H1246 and with NCI-H522 were 0.76±0.04, 1.47±0.30 and 0.45±0.16, respectively. Also, the IC50 in test [1] turned out to be 10 nM; in the test with VIP receptor (read-out: IC50, first binding site of biphasic displacement curve) it was 0.05 nM; in the test on VIP receptor (read-out: IC50, second binding site of biphasic displacement curve), 100 nM. Moreover, in test [2] (setting [5]), the “effect on VIP-stimulated sexual activity” value is given as “complete blockade of VIP activity”. The “sexual activity values lower than the control values” in test [2] (setting [5]) is recorded as 2 fold. The “latency to the first copulatory event” value in [2] (coinjected ip with VIP at 3-fold molar excess, 40±9 with VIP alone) turned out to be 92 ± 20 s. In [2] (injected by itself, 10 animals, from 1.66±0.12), the “rate of copulatory events” value was determined as 1.16±0.11. Further, the intromission interval in test [2] (injected by itself, 10 animals, from 36.9±2.4) was 53.4 ± 8.6 s. Further, the “displacement of VIP binding” value with VIP receptor is recorded as 85-90%.

As for “^125 I-VIP: VIP iodinated using the chloramine T procedure; radiolabeled VIP”, the Kd in test [1] (read-out: Kd, high affinity site (Scatchard)) was found to be 0.7 nM; in test [1] (read-out: Kd, low affinity site (Scatchard)) it was 20 nM. The “time at which half of the specific binding was reversed (dissociation)” value in test [1] (after addition of 1 μM unlabeled VIP) was found to be 40 min. For the same substance, the “time to half maximal specific binding (association)” value in test [4] is 20 min. In addition, the “time to maximal specific binding (association)” value in [4] was found to be 60 min.
